In article PMC3435281 (PLoS ONE, 2012):

Key:
AHR^−/− splenocytes = assay: CYP1A1 and IDO mRNA in AHR^−/− splenocytes; format: cell-based, mouse; settings: null cells, SU5416 500 nM or IFN-γ 100 ng/ml, 4 hours
From the text: An important role for the AHR in the immune system, and specifically T-cell differentiation, has been recognized and continues to be characterized in the literature, [7]. Some ligands of the AHR have the ability to enhance Treg differentiation from naïve T-cells (TCDD, kynurenine), while others direct differentiation towards Th17 effector cells (FICZ). […] IDO has long been known to play a role in Treg generation, and may be central to the mechanism of Dendritic Cell (DC)-directed Treg generation. We as well as others have previously shown that IDO mRNA can be induced by ligands of the AHR, and that the mechanisms of IDO-directed Treg generation may depend on the AHR [25]. […] As described in the Methods, naïve T-cells were sorted using magnetic bead separation, and placed in culture for 5 days with allogeneic pDCs separated from BALB/C mice. SU5416, TCDD, FICZ, or media alone was added at the start of culture. After 5 days, cells were collected and mRNA harvested for qPCR analysis of IDO and FoxP3. […] We used a dose of 2 ng/ml TGF-β, which in our hands has been a suboptimal dose for Treg generation (4 ng/ml has been optimal in our hands). […]
(§1) A. Spleens were harvested from mice and processed in the standard fashion. […] Same assay as A, but mRNA for CYP1B1 and IDO were measured. […] Same assay as in C, but IDO mRNA was assessed. * - p≤0.05. * - p≤0.01. […]

[1] = known value; cited from earlier work
C57BL/6J splenocytes = assay: CYP1A1, CYP1B1 and IDO mRNA in C57BL/6J splenocytes; format: cell-based, mouse; settings: 4 hours
From the text: An important role for the AHR in the immune system, and specifically T-cell differentiation, has been recognized and continues to be characterized in the literature, [7]. Some ligands of the AHR have the ability to enhance Treg differentiation from naïve T-cells (TCDD, kynurenine), while others direct differentiation towards Th17 effector cells (FICZ). […] IDO has long been known to play a role in Treg generation, and may be central to the mechanism of Dendritic Cell (DC)-directed Treg generation. […] As described in the Methods, naïve T-cells were sorted using magnetic bead separation, and placed in culture for 5 days with allogeneic pDCs separated from BALB/C mice. […] After 5 days, cells were collected and mRNA harvested for qPCR analysis of IDO and FoxP3. […] Naïve T cells were placed in culture with IL-6 and TGF-β, and harvested after 3 days of culture.
A. Spleens were harvested from mice and processed in the standard fashion. […] Same assay as A, but mRNA for CYP1B1 and IDO were measured. C.

naïve T cells = assay: Naïve T cells in Th17 conditions, IL-17 ELISA of supernatant; format: cell-based, mouse; settings: TGF-β 4 ng/ml, IL-6 20 ng/ml, 3 days
naïve CD4^+ T cells = assay: Naïve CD4+ T cells with TGF-β, flow cytometry of FoxP3 and CD39; format: cell-based, mouse; settings: TGF-β 2 ng/ml with SU5416 250 nM, day 3
From the text: An important role for the AHR in the immune system, and specifically T-cell differentiation, has been recognized and continues to be characterized in the literature, [7]. Some ligands of the AHR have the ability to enhance Treg differentiation from naïve T-cells (TCDD, kynurenine), while others direct differentiation towards Th17 effector cells (FICZ). […] IDO has long been known to play a role in Treg generation, and may be central to the mechanism of Dendritic Cell (DC)-directed Treg generation. We as well as others have previously shown that IDO mRNA can be induced by ligands of the AHR, and that the mechanisms of IDO-directed Treg generation may depend on the AHR [25]. […] As described in the Methods, naïve T-cells were sorted using magnetic bead separation, and placed in culture for 5 days with allogeneic pDCs separated from BALB/C mice. […]
as §1
Naive CD4^+ T cells were isolated using the CD4^+ CD62L Isolation Kit (Miltenyi Biotec, Auburn, CA) and an autoMACS. […] For quantitative PCR (qPCR) analysis, 2–5 × 10^5 cells were cultured in each well of a 96-well round-bottom plate coated with 0.5 µg/ml anti-CD3 and anti-CD28 overnight and then washed with PBS twice before seeding the cells. […]

[2] = target: wild-type AHR (pTarget-mAHR) (Mus musculus, UniProt P30561); assay: DRE-luciferase in COS-1 cells transfected with wild-type mAHR
Sequence of wild-type AHR (pTarget-mAHR) (P30561 10-848): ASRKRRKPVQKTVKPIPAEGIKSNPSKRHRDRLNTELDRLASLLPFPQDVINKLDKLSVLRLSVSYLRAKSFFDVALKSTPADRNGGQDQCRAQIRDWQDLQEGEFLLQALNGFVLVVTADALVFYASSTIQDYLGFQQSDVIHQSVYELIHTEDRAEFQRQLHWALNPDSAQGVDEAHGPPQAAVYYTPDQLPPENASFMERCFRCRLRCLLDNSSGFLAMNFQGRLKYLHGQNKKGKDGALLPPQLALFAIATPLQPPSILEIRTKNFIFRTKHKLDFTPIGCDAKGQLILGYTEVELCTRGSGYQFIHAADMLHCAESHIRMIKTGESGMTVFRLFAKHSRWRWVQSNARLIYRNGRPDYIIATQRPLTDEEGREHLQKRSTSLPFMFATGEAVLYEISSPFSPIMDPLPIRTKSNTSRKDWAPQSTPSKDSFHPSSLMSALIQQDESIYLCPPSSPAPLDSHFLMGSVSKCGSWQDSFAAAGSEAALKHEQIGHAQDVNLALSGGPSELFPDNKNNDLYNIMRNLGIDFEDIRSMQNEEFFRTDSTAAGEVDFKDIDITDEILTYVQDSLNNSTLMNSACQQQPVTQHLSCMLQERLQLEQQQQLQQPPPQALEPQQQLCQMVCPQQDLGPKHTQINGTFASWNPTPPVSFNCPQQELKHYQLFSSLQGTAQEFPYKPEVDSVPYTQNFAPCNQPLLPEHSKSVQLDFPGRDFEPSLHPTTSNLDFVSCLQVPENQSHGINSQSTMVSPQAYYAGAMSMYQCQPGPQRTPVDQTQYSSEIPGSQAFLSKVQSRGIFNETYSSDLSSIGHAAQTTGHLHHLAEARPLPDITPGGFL
Description: Figure 4 Splenocytes from wild-type and AHR^d mice analyzed by qPCR for CYP1A1. […] After 4 hours they were analyzed by qPCR for CYP1A1 analysis. The curves are normalized from 0 to 100% response. […] Cos-1 cells were transfected with an AHR containing the same point mutation (valine for alanine) thought to be responsible for the low affinity of the AHR^d isoform compared to AHR^b, and compared to the wild-type AHR response. These cells also harbor a luciferase gene next to the DRE. C. Cos-1 cells were exposed to TCDD. […] The graphs represent normalized data from 0 response to 100% response. They are representative of 2 independent experiments.
These cells also harbor a luciferase gene next to the DRE. […] The data in this figure is normalized from 0 to 100% response.
After 4 hours of treatment, cells were assayed with dual luciferase® reporter assay system (Promega, Madison, WI). The expressed luciferase activity was measured by MicroLumat Plus luminometer (Berthold Technologies, Hartfordshire, UK).

Row | SMILES | IDO mRNA induction (AHR^−/− splenocytes) | plasma half-life [1] | induction of CYP1A1 and CYP1B1 mRNA (C57BL/6J splenocytes; titrating doses) | induction of IDO mRNA (C57BL/6J splenocytes; titrating doses) | CYP1A1 mRNA induction (C57BL/6J splenocytes; wild-type cells, SU5416 500 nM) | IL-17 protein by ELISA in the supernatant (naïve T cells; higher doses) | IL-17 protein by ELISA in the supernatant (naïve T cells; low doses) | CD39 in the FoxP3^+ T cells (naïve CD4^+ T cells) | FoxP3 protein expression by flow cytometry (naïve CD4^+ T cells) | EC50 [2]
1 | Cc1cc(C)c(C=C2C(=O)Nc3ccccc32)[nH]1 [SU5416, 3-(3,5-dimethyl-1H-pyrrol-2-ylmethylene)-1,3-dihydro-indole-2-one] | not null cells | 30 min | dramatically induced | induced significant amounts of IDO mRNA | induced CYP1A1 in wild-type | did not see this effect | small increase | upregulated | significantly enhanced | 
2 | Clc1cc2c(cc1Cl)Oc1cc(Cl)c(Cl)cc1O2 [TCDD, 2,3,7,8-tetrachlorodibenzo-p-dioxin] |  |  |  |  |  |  |  |  |  | 0.73 nM
